Laboratory results as given in patent US9765061B2, “Trail enhancers for the selective killing of cancer cells” (The Scripps Research Institute, priority 2013, dated 2017).

Key:
A549 cell line = test: Viability of A549 cells, XTT-based assay, with or without TRAIL; assay type: cell-based, human
Description: FIG. 4: C12 sensitizes long cancer cell line A549 to TRAIL. (A) Viability of cells was examined after 24-hour incubation in media containing TRAIL (50 ng/ml), compound (C12) (1 μM), compound (C12R) (25 μM) or the indicated combination of TRAIL (T) with (C12) or (C12R). The chemical structures of (C12) and its stereoisomer (C12R) are shown on the right. (B) Viability of cells was examined after 24-hour incubation in media, containing TRAIL (50 ng/ml) and the indicated doses of C12. Viable cells remaining after the treatment were determined as a function of mitochondrial activity of living cells according to XTT-based toxicology assay kit (Sigma) and are shown as a percentage of viable untreated cells.
To test this hypothesis, we examined the effect of C12 in vitro on the activity of TRAIL against A549 cell line derived from a cancer sample of the human lung.
Cytotoxicity was determined by using the XTT-based toxicology assay kit (Sigma, St. Louis, Miss.) in accordance with the manufacturer's instructions. For some experiments, to confirm the apoptotic nature of toxicity, cells were analyzed using protocols and instructions of the Annexin V-FITC apoptosis detection kit (Biovision, Mountain View, Calif.). In addition, caspase 3, 8 and 9 activities were determined by colorimetric assays (R&D System), and the data are expressed as fold increases compared to the values of untreated or control-treated cells (n=5).

[1] = tested on: normal human bronchial epithelial cells (NHBE); test: PARP cleavage in normal human bronchial epithelial cells; assay type: cell-based; settings: FIG. 3D
Description: (§1) FIG. 3: Sensitivity of cancerous and non-cancerous cells to apoptosis induced by TNF, C12 or a combination of C12 and TNF. Cells were incubated with TNF, (C12) or a combination of TNF and (C12) as indicated, and the cleavage of PARP (an apoptotic marker) was determined by Western blot. (A and B) Breast cancer MCF-7 cells transfected with control vector (Vector) and vector expressing Bcl-2 or CLARP. (C) HeLa cell line. (D) Normal human bronchial epithelial cells (NHBE).
(§2) Similar experiments were conducted by using normal human bronchial epithelial cells and HeLa cell line as an example of transformed cells. We observed that both HeLa and normal cells were resistant to pro-apoptotic effects of TNF (FIG. 3C and 3D). […] In addition, two stimuli—C12 and TNF—work synergistically against cancerous cells, although normal cells stay intact.
Cancer and normal cell culture. Lung cancer cell line A549 and colon cancer cell line HT29 were purchased from ATCC. Breast cancer cell line MDA-MB-468 was received from J. C. Reed (The Burnham Institute, La Jolla, Calif.). […]
Antibodies and Western blot analysis. […] Cellular extracts were prepared and analyzed by Western blot assay as previously described.^E3

HeLa cell line = test: PARP cleavage in HeLa cells; assay type: cell-based, human; settings: FIG. 3C
Description: as §1, §2
Antibodies and Western blot analysis. Anti-eIF2α, phospho-eIF2α[…](p-eIF2α), p38, p-p38 (Thr180/Tyr132), p-RelA (Ser536), p-I κB ? 32/36), PARP 20 antibodies were purchased from Cell Signaling; anti-RelA, I κB α, IκBβ were from Santa Cruz Biotechnology. Cellular extracts were prepared and analyzed by Western blot assay as previously described.^E3

CCCCCCCCCC(=O)CC(=O)N[C@H]1CCOC1=O [Compound 1, N-(3-oxo-dodecanoyl) homoserine lactone]
cell growth and viability, compound alone (A549 cell line; C12 1 μM or 25 μM, C12R 25 μM, no TRAIL): practically unchanged
sensitivity of A549 cells to TRAIL in the presence of compound (A549 cell line; FIG. 8A): comparable increase in sensitivity
cytotoxicity at 0.1 µM (A549 cell line; Homo sapiens, A549, 100 nM of C12 and 50 ng/ml of TRAIL, 24-hours incubation, read-out: cells that lost their viability): > 50%
viability of A549 cells (A549 cell line; combination of TRAIL (50 ng/ml) and C12 (1 μM)): dramatically reduced
apoptosis (PARP cleavage), compound alone and in combination with TNF [1]: showed resistance
cleavage of PARP, compound alone (HeLa cell line): induced the cleavage of PARP
